Experimental findings from PubChem BioAssay (NCI) are described below.

SMILES strings stand for the structures. Where “and” joins values, the source holds several entries; their conditions need not be identical. Equal values may be shown once.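 Compound exposure: 48 hours, 5 concentrations, 96-well plates. GI50 = concentration required for 50% inhibition of growth. TGI: concentration producing complete growth inhibition.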

Common to all, as to assay: NCI tumour cell line growth inhibition, 48 h
Experiment [1] relates to A498 renal.
For experiment [2], the system named is HOP-92 NSCLC.
For experiment [3], the system named is HS 578T breast.
In experiment [4] the test system is K-562 leukemia.
Experiment [5] concerns MCF7 breast.
The subject of experiment [6] is OVCAR-8 ovarian.
The subject of experiment [7] is RPMI-8226 leukemia.
For experiment [8], the system named is RXF 393 renal.
For experiment [9], the system named is SK-OV-3 ovarian.
Experiment [10] deals with TK-10 renal.

Turning to `CCOC(=O)c1sc2nc(SC)nc3c2c1N=CN3c1ccc(Br)cc1`, the TGI in experiment [1], in [2], in experiment [3], in [4], in experiment [5] and in [6] was over 100 µM each time. The TGI in [7], in [8], in experiment [9] and in [10] was over 100 µM throughout.
Consider `CCOC(=O)CCC(NC(=O)c1ccc(OCc2nc3cc(C(F)(F)F)ccc3nc2-c2ccccc2)cc1)C(=O)OCC` (stereo unspecified), for which the TGI in experiment [1] was over 100 µM; in experiment [2], over 100 µM; in experiment [3] it was over 100 µM; in [4] it was over 100 µM; in experiment [5], 19.4 µM; in experiment [6], over 100 µM. The TGI in [7], in experiment [8] and in experiment [9] was over 100 µM throughout.
On to `N#C/C(=C\NC(=S)Nc1ccc(S(=O)(=O)Nc2ccccn2)cc1)C(N)=O`, for which the TGI in experiment [1], in [2], in [3], in experiment [4], in experiment [5] and in [6] was over 100 µM each time. Further, the TGI in [7], in experiment [8], in experiment [9] and in [10] was over 100 µM each time.
As for `CC[C@@H]1CC[C@@H]2[C@H](CC[C@]3(C)[C@@H](O)CC[C@@H]23)[C@H]1C(=O)O`, the TGI in experiment [1], in experiment [2], in experiment [3], in experiment [4], in [5] and in [6] was over 100 µM each time. Moreover, the TGI in [7], in experiment [8], in experiment [9] and in experiment [10] was over 100 µM in each case.
On to `OCC1CCCC(n2cnc3c(=S)nc[nH]c32)O1` (stereo unspecified), for which the TGI in experiment [1], in experiment [2], in experiment [3], in [4], in experiment [5] and in experiment [6] was over 100 µM each time. Further, the TGI in [7], in experiment [8], in experiment [9] and in experiment [10] was over 100 µM in each case.
Regarding `Clc1cc(N/N=C(/c2ccccc2)c2ncccn2)ncn1`, the TGI was 36.6 µM in experiment [2]; 66.7 µM in experiment [3]; 51.8 µM in [4]; 46.4 µM in experiment [5]; 34.6 µM in [6]; over 100 µM in experiment [7]. The TGI in experiment [8] stood at 41.4 µM; in experiment [9] it was 35.7 µM.
Take `O=c1c2ccccc2[nH]c(=S)n1-c1ccc(N=Nc2cccc3c(O)cccc23)cc1`: the TGI was over 100 µM in experiment [2]; over 100 µM in [3]; over 100 µM in experiment [4]; 35.2 µM in experiment [5]; over 100 µM in experiment [6]; over 100 µM in experiment [7]. For the same compound, the TGI in experiment [8], in experiment [9] and in experiment [10] was over 100 µM in each case.
For the compound `c1cc2nnc1SCCSCCSc1ccc(nn1)SCCSCCS2`, the TGI in experiment [1], in [2], in [3], in experiment [4], in experiment [5] and in experiment [6] was over 100 µM in each case. The TGI in [7], in experiment [8], in experiment [9] and in [10] was over 100 µM throughout.
For the compound `Cc1cccc(N2C(=O)C3ON(C(C(N)=O)c4ccccc4)C(c4c5ccccc5c(Cl)c5ccccc45)C3C2=O)c1C` (stereo unspecified), the TGI in experiment [1] is 32.2 µM; in [2], 22.6 µM; in experiment [3], over 50 µM; in [4] it was over 50 µM; in experiment [5] it was 17.9 µM; in [6], 25.1 µM. Also, the TGI in experiment [8] was 13.5 µM; in experiment [9], over 50 µM; in [10], 25.3 µM.
Take `Oc1ccccc1C(c1cc2c(cc1O)OCO2)N1CCOCC1` (stereo unspecified): the TGI in experiment [1] amounted to 42.2 µM; in experiment [2] it was 34.1 µM; in [3] it was 56.4 µM; in [4] it was 23.5 µM; in experiment [5], 38.3 µM; in [6], 44.7 µM. The TGI in experiment [7] is 41.7 µM; in experiment [8], 30.8 µM; in [9] it was over 100 µM.
As to `Cc1ccc(N=Nc2c3c(c(O)c4ccccc24)CCC(C)(C)O3)cc1`, the TGI in experiment [1] is 38.6 µM; in experiment [2], over 100 µM; in experiment [3] it was 84.4 µM; in experiment [4] it was over 100 µM; in [5] it was 27.2 µM; in experiment [6], over 100 µM. Moreover, the TGI is over 100 µM in [7], over 100 µM in [8], over 100 µM in experiment [9] and 88.5 µM in [10].
In the case of `COc1cc(COC(=O)N[C@H](C(=O)O)C(C)(C)C)c([N+](=O)[O-])cc1OC`, the TGI in [1], in experiment [2], in experiment [3], in experiment [4], in [5] and in experiment [6] was over 100 µM each time. Also, the TGI in [7], in experiment [8], in experiment [9] and in [10] was over 100 µM each time.
For `Cc1cn(C2CC(N)C(CN)O2)c(=O)[nH]c1=O` (stereo unspecified), the TGI in [1], in experiment [2], in experiment [3], in [4], in experiment [5] and in experiment [6] was over 100 µM in each case. Besides, the TGI in experiment [7], in experiment [8], in experiment [9] and in experiment [10] was over 100 µM in each case.
For `Cc1ccc(-c2cc(N)n(-c3nc4c([nH]3)c(=O)n(C)c(=O)n4C)n2)cc1`, the TGI in [1] was 21 µM; in [2] it was 32.2 µM; in experiment [3], over 100 µM; in [4], over 100 µM; in experiment [5], over 100 µM; in experiment [6], 15.3 µM. Further, the TGI in experiment [7] is over 100 µM; in [8], 81.1 µM; in experiment [9], 16.1 µM; in [10], 26.4 µM.
On to `Nc1nc2ncc(SCc3ccc(C(=O)NC(CCC(=O)O)C(=O)O)cc3)cc2c(=O)[nH]1` (stereo unspecified), for which the TGI in experiment [1], in experiment [2], in experiment [3], in experiment [4], in [5] and in experiment [6] was over 100 µM each time. The TGI in experiment [7], in experiment [9] and in [10] was over 100 µM each time.
Regarding `O=C(/C(=C(/Br)I)c1ccccc1)c1ccccc1`, the TGI in experiment [1] is 28.7 µM; in experiment [2], 35.6 µM; in experiment [3], over 100 µM; in experiment [4] it was 39.3 µM; in experiment [5] it was 94.4 µM; in experiment [6], 48.3 µM. The TGI is 47.2 µM in experiment [7], 31.6 µM in experiment [8], over 100 µM in [9] and 69.1 µM in experiment [10].
With `CCOC(=O)c1cc2c([N+](=O)[O-])c(NC(C)=O)ccc2s1`, the TGI in experiment [1], in experiment [2], in [3], in experiment [4], in experiment [5] and in [6] was over 100 µM throughout. For the same compound, the TGI in [7], in experiment [8], in experiment [9] and in experiment [10] was over 100 µM each time.
As for `CCN(CC)CCn1c2cc3c(cc2c(=O)c2cccnc21)OCCO3`, the TGI in experiment [2], in experiment [3], in experiment [5], in experiment [6], in [7] and in experiment [8] was over 10 µM each time. Moreover, the TGI in experiment [9] and in experiment [10] was over 10 µM throughout.
`Cc1c(Cl)ccc2c(=O)c3cccc(CC(=O)O)c3oc12`: the TGI in experiment [1], in [2], in experiment [3], in experiment [4], in experiment [5] and in [6] was over 100 µM in each case. Moreover, the TGI in experiment [7] and in experiment [10] was over 100 µM throughout.
For `O=c1c2c3ccccc3[nH]c2c2cccc3c2n1CCC3`, the TGI in experiment [1], in experiment [2], in [3], in [4], in experiment [5] and in experiment [6] was over 100 µM throughout. The TGI in experiment [8], in experiment [9] and in experiment [10] was over 100 µM throughout.
In the case of `Cc1[nH]c(/C=C2\C(=O)Nc3ccc(S(=O)(=O)Cc4c(Cl)cccc4Cl)cc32)c(C)c1C(=O)N1CCC[C@@H]1CN1CCCC1`, the GI50 in experiment [1] was 18.7 µM; in [2], 2.09 µM; in experiment [3] it was 7.72 µM; in [4], 1.63 µM; in [5] it was 1.69 µM; in experiment [6] it was 1.88 µM. Besides, the GI50 in [9] is 22.4 µM; in experiment [10] it was 1.92 µM. The TGI in experiment [1] is 52.8 µM; in [2], over 44 µM; in experiment [3] it was 43.9 µM; in experiment [4], over 100 µM; in [5], 3.64 µM; in [6], 4.37 µM. Moreover, the TGI in [9] was determined as 59.1 µM; in [10], 3.85 µM.
As for `O=c1[nH]cnc2c(C3OC(CO)C(O)C3O)c[nH]c12` (stereo unspecified), the TGI in experiment [2], in [3], in experiment [4], in [5], in experiment [6] and in experiment [7] was over 100 µM each time. Further, the TGI in experiment [8], in experiment [9] and in [10] was over 100 µM in each case.
For the compound `N#Cc1c(N)[nH]c(=S)c(C#N)c1-c1cccc(Cl)c1`, the TGI in experiment [1] was over 100 µM; in experiment [2], over 100 µM; in experiment [3], 94.1 µM; in [4] it was over 100 µM; in [5], over 100 µM; in experiment [6], over 100 µM. Besides, the TGI is 94.5 µM in experiment [7], 46.6 µM in [8] and over 100 µM in experiment [10].
In the case of `O=c1[nH]c2nc3ccccc3c(=O)n2/c1=C/c1ccc(O)cc1`, the TGI in [2] was over 100 µM; in experiment [3], 69.7 µM; in experiment [5] it was over 100 µM; in experiment [6], 54.8 µM; in experiment [7], 53.2 µM; in [8], over 100 µM. In addition, the TGI in experiment [9] and in experiment [10] was over 100 µM each time.
Turning to `O=C(NS(=O)(=O)Nc1ccc(Cl)cc1)OCc1ccc(Cl)cc1Cl`, the TGI in experiment [1] is 38.8 µM; in experiment [2] it was 61.9 µM; in experiment [3], 37.5 µM; in experiment [4], over 100 µM; in [5] it was 31.9 µM; in experiment [6], 90.7 µM. Further, the TGI in [7] is over 100 µM; in experiment [9], 48.2 µM; in experiment [10], 41.9 µM.
As for `O=C1CC(C(O)CO)CC(=O)N1` (stereo unspecified), the TGI in [1], in experiment [2], in experiment [3], in experiment [4], in [5] and in experiment [6] was over 100 µM throughout. In addition, the TGI in experiment [7] and in experiment [10] was over 100 µM in each case.
Regarding `COc1ccc(-c2c(C#N)c(S)n(C3OC(COC(C)=O)C(OC(C)=O)C(OC(C)=O)C3OC(C)=O)c(=O)c2C#N)cc1` (stereo unspecified), the TGI in experiment [1] is 90.5 µM and 77.3 µM; in [2] it was 67 µM and 53.5 µM; in experiment [3] it was 93.7 µM and 95.5 µM; in [5], over 100 µM; in experiment [6], over 100 µM; in experiment [7], > 100 µM and 60.5 µM. The TGI in experiment [8] is 71.7 µM and 73 µM; in [9], 75.8 µM and > 100 µM; in [10], > 100 µM and 92.2 µM. In experiment [7], the GI50 was > 100 µM and 23.4 µM.
Regarding `COc1ccc(Nc2[nH]c(C(C)=O)c(N)c2C(=S)Nc2ccccc2)cc1`, the TGI is over 100 µM in experiment [1]; over 100 µM in [2]; over 100 µM in [3]; over 100 µM in experiment [4]; 68.6 µM in experiment [5]; over 100 µM in experiment [6]. The TGI in experiment [8] is 77.7 µM; in [9], over 100 µM; in experiment [10] it was over 100 µM.
